Where “and” joins values, the source holds several entries; their conditions need not be identical. Equal entries are not always repeated.
Legend:
MCR-3 = target: T1, MCR-3 (Homo sapiens, UniProt P41968); test: Melanocortin receptor binding assay, competition with 125I-HP 467, HEK 293 cells expressing hMCR-3; details: binding to MCR-3, HEK 293 cells; read-out: MC-3 IC50
T1 construct: expressed in transfected cells; host or cells: HEK 293
Text: (§1) All cell culture media and reagents were obtained from GibcoBRL (Gaithersburg Md.), except for COSMIC CALF SERUM (HyClone; Logan Utah). HEK-293 cell lines were transfected with the human MC receptors hMCR-1, hMCR-3, and hMCR-4 (Gantz et al., Biochem. Biophys. Res. Comm. 200:1214-1220 (1994); Gantz et al., J. Biol. Chem. 268:8246-8250 (1993); Gantz et al. J. Biol. Chem. 268:15174-15179 (1993); Haskell-Leuvano et al., Biochem. Biophys. Res. Comm. 204:1137-1142 (1994); each of which is incorporated herein by reference). Vectors for construction of an hMCR-5 expressing cell line were obtained, and a line of HEK 293 cells expressing hMCR-5 was constructed (Gantz, supra, 1994). hMCR-5 has been described previously (Franberg et al., Biochem. Biophys. Res. Commun. 236:489-492 (1997); Chowdhary et al., Cytogenet. Cell Genet. 68:1-2 (1995); Chowdhary et al., Cytogenet. Cell Genet. 68:79-81 (1995), each of which is incorporated herein by reference). HEK 293 cells were maintained in DMEM, 25 mM HEPES, 2 mM glutamine, non-essential amino acids, vitamins, sodium pyruvate, 10% COSMIC CALF SERUM, 100 units/ml penicillin, 100 μg/ml streptomycin and 0.2 mg/ml G418 to maintain selection.
(§2) Before assaying, cells were washed once with phosphate buffered saline (“PBS”; without Ca^2+ and Mg^2+), and stripped from the flasks using 0.25% trypsin and 0.5 mM EDTA. Cells were suspended in PBS, 10% COSMIC CALF SERUM and 1 mM CaCl2. Cell suspensions were prepared at a density of 2×10^4 cells/ml for HEK 293 cells expressing hMCR-3, hMCR-4 or hMCR-5, and 1×10^5 cells/ml for HEK 293 cells expressing hMCR-1. Suspensions were placed in a water bath and allowed to warm to 37° C. for 1 hr.
(§3) Binding assays were performed in a total volume of 250 μl for HEK 293 cells. Control and test compounds were dissolved in distilled water. ^125I-HP 467 (50,000 dpm) (2000 Ci/mmol) (custom labeled by Amersham; Arlington Heights Ill.) was prepared in 50 mM Tris, pH 7.4, 2 mg/ml BSA, 10 mM CaCl2, 5 mM MgCl2, 2 mM EDTA and added to each tube. To each tube was added 4×10^3 HEK 293 cells expressing hMCR-3, hMCR-4 or hMCR-5, or 2×10^4 cells expressing hMCR-1. Assays were incubated for 2.5 hr at 37° C.
(§4) GF/B filter plates were prepared by soaking for at least one hour in 5 mg/ml BSA and 10 mM CaCl2. Assays were filtered using a Brandel 96-well cell harvester (Brandel Inc.; Gaithersburg, Md.). The filters were washed four times with cold 50 mM Tris, pH 7.4, the filter plates were dehydrated for 2 hr and 35 μl of MICROSCINT was added to each well. Filter plates were counted using a Packard Topcount (Packard Instrument Co.) and data analyzed using GraphPad PRISM v2.0 (GraphPad Software Inc.; San Diego Calif.) and Microsoft EXCEL v5.0a (Microsoft Corp.; Redmond Wash.).
(§5) To assay isoquinoline compounds, binding assays were performed in duplicate in a 96 well format. HP 467 was prepared in 50 mM Tris, pH 7.4, and ^125I-HP 467 was diluted to give 100,000 dpm per 50 μl. An isoquinoline compound, synthesized as described in Example I, was added to the well in 25 μl aliquots. A 25 μl aliquot of ^125I-HP 467 was added to each well. A 0.2 ml aliquot of suspended cells was added to each well to give the cell numbers indicate above, and the cells were incubated at 37° C. for 2.5 hr. Cells were harvested on GF/B filter plates as described above and counted.
(§6) Some of the isoquinoline compounds were further tested for binding to MCR-3 and MCR-5.

MCR-5 = target: T2, MCR-5 (Homo sapiens, UniProt P33032); test: Melanocortin receptor binding assay, competition with 125I-HP 467, HEK 293 cells expressing hMCR-5; details: binding to MCR-5, HEK 293 cells; read-out: MC-5 IC50
T2 construct: expressed in transfected cells; host or cells: HEK 293
Text: as §1, §2, §3, §4, §5, §6

IL-10 = test: Increasing levels of IL-10 in mice (plasma ELISA); type: in vivo; details: for % IL-10 Induction, IP 30: 30 μg per mouse; for % IL-10 Induction, IP 30 / % IL-10 Induction, IP 100 / % IL-10 Induction, IP 300 / % IL-10 Induction, Oral 600 / % IL-10 Induction, Oral 300: mouse plasma, 90 or 105 minutes; for % IL-10 Induction, IP 100: 100 μg per mouse; for % IL-10 Induction, IP 300 / % IL-10 Induction, Oral 300: 300 μg per mouse; for % IL-10 Induction, Oral 600: 600 μg per mouse
Experimental: Isoquinoline compounds were administered intraperitoneally to mice in doses of 30, 100 or 300 μg/mouse or orally in doses of 300 or 600 μg/mouse. Levels of IL-10 were measured 90 or 105 minutes after administration as indicated. Samples were collected and diluted, when appropriate, as described in Example VI. A 100 μl sample of plasma was assayed by ELISA for IL-10. Briefly, ELISA plates were coated with rat anti-mouse IL-10 monoclonal antibody (Pharmingen; San Diego Calif.). Samples or known concentrations of IL-10 were added to the coated plates and incubated for 2 hr at 37° C. Plates were washed and incubated with biotinylated rat anti-mouse IL-10 (R&D Systems; Minneapolis Minn.) for 1 hr at 37° C. Plates were washed and incubated with streptavidin-HRP 30 min at 37° C., and HRP activity was detected with hydrogen peroxide and TMB using standard immunoassay procedures.

T2 sequence (P33032 whole entry): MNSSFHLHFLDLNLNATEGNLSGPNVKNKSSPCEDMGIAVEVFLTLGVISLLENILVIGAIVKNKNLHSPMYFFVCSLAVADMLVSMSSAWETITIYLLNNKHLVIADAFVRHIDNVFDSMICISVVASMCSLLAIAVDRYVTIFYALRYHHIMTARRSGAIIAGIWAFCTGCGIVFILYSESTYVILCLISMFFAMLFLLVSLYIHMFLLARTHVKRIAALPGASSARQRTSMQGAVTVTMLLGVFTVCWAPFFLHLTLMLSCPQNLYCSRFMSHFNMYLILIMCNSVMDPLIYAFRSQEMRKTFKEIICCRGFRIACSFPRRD
T1 sequence (P41968 whole entry): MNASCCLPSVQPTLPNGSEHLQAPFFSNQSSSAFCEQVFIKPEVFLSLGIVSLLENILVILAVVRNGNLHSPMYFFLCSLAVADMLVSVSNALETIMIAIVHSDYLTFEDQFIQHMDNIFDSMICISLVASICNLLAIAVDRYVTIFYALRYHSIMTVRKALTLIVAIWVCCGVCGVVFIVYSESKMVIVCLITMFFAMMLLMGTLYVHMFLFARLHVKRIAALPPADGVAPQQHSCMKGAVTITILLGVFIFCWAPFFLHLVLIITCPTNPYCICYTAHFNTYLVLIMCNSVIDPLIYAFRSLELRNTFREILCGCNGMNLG

Row | Compound | IC50 (MCR-3) [nM] | IC50 (MCR-5) [nM] | % IL-10 Induction, IP 30 (IL-10) [%] | % IL-10 Induction, IP 100 (IL-10) | % IL-10 Induction, IP 300 (IL-10) [%] | increase of IL-10 (IL-10; plasma levels in mice) | % IL-10 Induction, Oral 600 (IL-10) [%] | % IL-10 Induction, Oral 300 (IL-10) [%] | increase of IL-10 (IL-10; administered orally)
1 | CNC(CN)CN1Cc2ccccc2C(CNC2CCCCC2)C1c1ccc(O)cc1 (centres unmarked) [TRG 2405-156] | 23700 | 2830 | 17 ± 23 | −5 ± 11% | 43 ± 34 | – | – | – | –
2 | CNC(CN)CCCCN1Cc2ccccc2C(CNC2CCCCC2)C1c1ccc(Cl)cc1Cl (centres unmarked) [TRG 2405-190] | 2240 | 800 | 25 ± 30 | 13 ± 14% | 109 ± 31 | particularly effective at increasing IL-10 | – | – | –
3 | CNC(CN)CCCCN1Cc2ccccc2C(CNC2CCCCC2)C1c1ccc(N(C)C)cc1 (centres unmarked) [TRG 2405-235] | 22300 | 2820 | −11 ± 13 | 45 ± 18% | 113 ± 15 | – | – | – | –
4 | CNC(CN)CCCCN1Cc2ccccc2C(CNC2CCCCC2)C1c1ccc(C(F)(F)F)cc1 (centres unmarked) [TRG 2405-238] | > 10000 | 430 | −17 ± 7 | 151 ± 26 % | 118 ± 25 | – | 65 ± 15 | – | –
5 | CCNc1ccc(C2C(CNC3CCCCC3)c3ccccc3CN2CCCCC(CN)NC)cc1 (centres unmarked) [TRG 2405-239] | 39800 | 8720 | 44 ± 35 | −29 ± 6% | 197 ± 34 | – | 46 ± 14 | – | –
6 | CNC(CN)CCCCN1Cc2ccccc2C(CNC2CCCCC2)C1c1ccc(-c2ccccc2)cc1 (centres unmarked) [TRG 2405-241] | 7450 | 1040 | 117 ± 21 | 310 ± 35 % | 406 ± 46 | particularly effective at increasing IL-10 | 77 ± 37 | 9 ± 23 | –
7 | CNC(CN)CCCCN1Cc2ccccc2C(CNC2CCCCC2)C1c1ccc(Br)cc1 (centres unmarked) [TRG 2405-242] | 550 | 410 | – | −9 ± 7% | – | – | – | – | –
8 | CNC(CN)CCCCN1Cc2ccccc2C(CNC2CCCCC2)C1c1ccc(O)cc1 (centres unmarked) [TRG 2405-246] | > 10000 | > 10000 | – | – | – | – | 30 ± 5 | – | –
9 | CNC(CN)CCCCN1Cc2ccccc2C(CNC2CCCCC2)C1c1ccc(Oc2ccccc2)cc1 (centres unmarked) [TRG 2405-252] | 6490 | 1860 | 2 ± 13 | – | 307 ± 43 | particularly effective at increasing IL-10 | 69 ± 19 | – | –
10 | CCCOc1ccc(C2C(CNC3CCCCC3)c3ccccc3CN2CCCCC(CN)NC)cc1 (centres unmarked) [TRG 2405-253] | 9680 | 2770 | 7 ± 21 | – | 325 ± 73 | particularly effective at increasing IL-10 | – | – | –
11 | CNC(CN)CCCCN1Cc2ccccc2C(CNC2CCCCC2)C1c1ccc2cccc(O)c2n1 (centres unmarked) [TRG 2405-262] | > 10000 | > 10000 | – | – | 191 ± 53 | – | – | – | –
12 | CNC(CN)CCCCN1Cc2ccccc2C(CN)C1c1ccc(Cl)cc1Cl (centres unmarked) [TRG 2407-39] | 280 | 240 | 34 ± 13 | – | 366 ± 12 | – | – | – | –
13 | CCNc1ccc(C2C(CNC3CCCCC3)c3ccccc3CN2CCCCC(CN)NC)cc1 (centres unmarked) [TRG 2408-30] | 40400 | 9350 | −20 ± 14 | – | 24 ± 12 | particularly effective at increasing IL-10 | 136 ± 41 | 33 ± 18 | particularly effective at increasing IL-10
14 | CCNc1ccc(C2C(CNCc3ccccc3O)c3ccccc3CN2CCCC(CN)NCCc2ccccc2)cc1 (centres unmarked) [TRG 2408-57] | 5170 | 1700 | 123 ± 30 | 247 ± 75 % and 225 ± 31 % | 386 ± 25 | – | 104 ± 16 | 57 ± 11 | –
15 | CCNc1ccc(C2C(CNC3CCCCC3)c3ccccc3CN2CCCC(CN)NCCc2ccccc2)cc1 (centres unmarked) [TRG 2408-62] | 5710 | 2790 | 51 ± 15 | – | 270 ± 71 | – | 27 ± 10 | 43 ± 20 | –
16 | CCCCNc1ccc(C2C(CNCc3ccccc3O)c3ccccc3CN2CCCCC(CN)NC)cc1 (centres unmarked) [TRG 2409-2] | – | – | −30 ± 11 | – | 157 ± 57 | – | 82 ± 19 | 39 ± 15 | –
17 | CCCCNc1ccc(C2C(CNC3CCCCC3)c3ccccc3CN2CCCCC(CN)NC)cc1 (centres unmarked) [TRG 2409-14] | – | – | −27 ± 8 | – | 150 ± 50 | – | 193 ± 50 | 79 ± 29 | –
